Holding throughout (assay type): cell-based
One experiment addresses human TRPV1 (Homo sapiens (Human), UniProt Q8NER1). The experiment is described as follows: Radiometric calcium selectivity assay, CHO cells expressing human TRPV1 (capsaicin). As to conditions: read-out: IC50 values hTRPV1. As to the method: (§1) For selectivity screening, CHO cells stably expressing human TRPV1, human TRPV3, human TRPV4, or human TRPM8 were generated in-house and maintained in DMEM F-12 supplemented with 10% FBS and G418. All the cell types were cultured at 37° C. in humidified air containing 5% CO2. Radiometric calcium assay was performed as described above with some minor modifications. Assay was carried out in total volume of 200 μl at 30° C. (for TRPV1), 32° C. (for TRPV3) and 25° C. (for TRPV4 and TRPM8). Agonists used for selectivity screening of the different TRPs are: Capsaicin for TRPV1,2-aminoethoxydiphenyl borate for TRPV3, 4α-phorbol 12,13-didecanoate for TRPV4 and Icilin for TRPM8. After 2-5 minutes of agonist treatment, drug was washed and lysed in lysis buffer as mentioned above. Radioactivity in the lysate was measured in Packard Top count after addition of liquid scintillant.

The next experiment concerns the target human TRPV4 (Homo sapiens (Human), UniProt Q9HBA0). The experiment can be described thus: Radiometric calcium selectivity assay, CHO cells expressing human TRPV4 (4α-phorbol 12,13-didecanoate). As to conditions: read-out: IC50 values hTRPV4. Here is the method: as §1
The target of another experiment is human TRPV3 (Homo sapiens (Human), UniProt Q8NET8). The experiment can be described thus: Radiometric calcium selectivity assay, CHO cells expressing human TRPV3 (2-aminoethoxydiphenyl borate). As to conditions: read-out: IC50 values hTRPV3. Here is the method:
as §1

In the next experiment the target is human TRPM8 (Homo sapiens (Human), UniProt Q7Z2W7). The experiment is described as follows: Radiometric calcium selectivity assay, CHO cells expressing human TRPM8 (icilin). As to conditions: read-out: IC50 values hTRPM8. As to the method:
as §1

In the next experiment the target is human TRPA1 (Homo sapiens (Human), UniProt O75762). The experiment is described as follows: 45Calcium uptake assay, AITC induced, human TRPA1 expressing CHO cells. As to conditions: AITC 30 micromolar, read-out: IC50 values hTRPA1. Here is the method:
As contemplated herein, the IC50 value is measured by the following method. The inhibition of TRPA1 receptor activation is measured as inhibition of allylisothiocyanate (AITC) induced cellular uptake of radioactive calcium. Test solution of test compound is prepared in a suitable solvent using appropriate method. Human TRPA1 expressing CHO cells are grown in suitable medium. Cells are treated with test compounds followed by addition of AITC. Cells are washed and lysed. Radioactivity in the lysate is measured in Packard Top count after addition of liquid scintillant. The concentration response curves for compounds are plotted as a % of maximal response obtained in the absence of test antagonist, and the IC50 values are calculated from such concentration response curve by nonlinear regression analysis using GraphPad PRISM software.
The illustrative TRPA1 antagonists of the present invention were screened for TRPA1 activity according to a modified procedure described in Tóth, A. et al., Life Sciences 2003, 73, 487-498. The screening of the compounds can be carried out by other methods and procedures known to persons skilled in the art.
Screening for TRPA1 Antagonist Using the 45Calcium Uptake Assay:
The inhibition of TRPA1 receptor activation was measured as inhibition of allylisothiocyanate (AITC) induced cellular uptake of radioactive calcium. Test compounds were dissolved in DMSO to prepare 10 mM stock solution and then diluted using plain medium with 0.1% BSA and 1.8 mM CaCl2 to get desired concentration. Final concentration of DMSO in the reaction was 0.5% (v/v). Human TRPA1 expressing CHO cells were grown in F-12 DMEM medium with 10% FBS, 1% penicillin-streptomycin solution, and 400 μg/ml of G-418. Cells were seeded 24 h prior to the assay in 96 well plates so as to get ˜50,000 cells per well on the day of experiment. Cells were treated with test compounds for 10 min followed by addition of AITC at a final concentration of 30 micromolar and 5 μCi/ml 45Ca+2 for 3 min at 25° C. Cells were washed and lysed using buffer containing 1% Triton X-100, 0.1% deoxycholate and 0.1% SDS. Radioactivity in the lysate was measured in Packard Top count after addition of liquid scintillant.
Concentration response curves were plotted as a % of maximal response obtained in the absence of test antagonist. IC50 value was calculated from concentration response curve by nonlinear regression analysis using GraphPad PRISM software.

In patent US9186360B2, “Treatment of respiratory disorders using TRPA1 antagonists” (GLENMARK PHARMACEUTICALS S.A., priority 2011, dated 2015) one finds IC50 data, which are given here for 24 compounds.

Where only a bound is given, the exact number is not on record here.

Chain of human TRPM8 (Q7Z2W7 whole entry): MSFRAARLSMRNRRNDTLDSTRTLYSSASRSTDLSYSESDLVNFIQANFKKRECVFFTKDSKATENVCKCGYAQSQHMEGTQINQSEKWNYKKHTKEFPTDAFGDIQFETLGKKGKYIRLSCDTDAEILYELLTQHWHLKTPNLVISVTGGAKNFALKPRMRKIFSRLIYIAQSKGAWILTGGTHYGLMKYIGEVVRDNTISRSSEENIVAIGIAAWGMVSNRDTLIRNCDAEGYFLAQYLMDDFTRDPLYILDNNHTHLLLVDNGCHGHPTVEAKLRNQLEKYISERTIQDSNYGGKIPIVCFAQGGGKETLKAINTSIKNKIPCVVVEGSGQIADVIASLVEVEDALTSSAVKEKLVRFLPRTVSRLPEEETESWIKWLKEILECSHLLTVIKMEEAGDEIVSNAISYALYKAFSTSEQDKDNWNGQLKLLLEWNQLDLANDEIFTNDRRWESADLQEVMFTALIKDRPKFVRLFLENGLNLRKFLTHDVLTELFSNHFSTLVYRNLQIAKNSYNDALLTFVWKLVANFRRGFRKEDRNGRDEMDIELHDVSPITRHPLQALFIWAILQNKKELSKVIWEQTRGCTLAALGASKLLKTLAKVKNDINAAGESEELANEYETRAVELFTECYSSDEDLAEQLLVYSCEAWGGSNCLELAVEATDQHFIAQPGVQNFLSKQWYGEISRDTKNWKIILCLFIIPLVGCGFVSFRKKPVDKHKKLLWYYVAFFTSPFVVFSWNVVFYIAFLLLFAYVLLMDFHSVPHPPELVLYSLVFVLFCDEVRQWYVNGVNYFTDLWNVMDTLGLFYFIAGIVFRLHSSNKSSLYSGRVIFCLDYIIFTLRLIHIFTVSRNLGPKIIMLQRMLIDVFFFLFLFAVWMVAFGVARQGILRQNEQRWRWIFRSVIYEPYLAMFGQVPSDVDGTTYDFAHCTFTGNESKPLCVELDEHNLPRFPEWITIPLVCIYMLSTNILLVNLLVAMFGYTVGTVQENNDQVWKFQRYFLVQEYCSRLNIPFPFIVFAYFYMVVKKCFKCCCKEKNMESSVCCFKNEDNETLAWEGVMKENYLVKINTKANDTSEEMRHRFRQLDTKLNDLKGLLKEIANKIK
Chain of human TRPA1 (O75762 whole entry): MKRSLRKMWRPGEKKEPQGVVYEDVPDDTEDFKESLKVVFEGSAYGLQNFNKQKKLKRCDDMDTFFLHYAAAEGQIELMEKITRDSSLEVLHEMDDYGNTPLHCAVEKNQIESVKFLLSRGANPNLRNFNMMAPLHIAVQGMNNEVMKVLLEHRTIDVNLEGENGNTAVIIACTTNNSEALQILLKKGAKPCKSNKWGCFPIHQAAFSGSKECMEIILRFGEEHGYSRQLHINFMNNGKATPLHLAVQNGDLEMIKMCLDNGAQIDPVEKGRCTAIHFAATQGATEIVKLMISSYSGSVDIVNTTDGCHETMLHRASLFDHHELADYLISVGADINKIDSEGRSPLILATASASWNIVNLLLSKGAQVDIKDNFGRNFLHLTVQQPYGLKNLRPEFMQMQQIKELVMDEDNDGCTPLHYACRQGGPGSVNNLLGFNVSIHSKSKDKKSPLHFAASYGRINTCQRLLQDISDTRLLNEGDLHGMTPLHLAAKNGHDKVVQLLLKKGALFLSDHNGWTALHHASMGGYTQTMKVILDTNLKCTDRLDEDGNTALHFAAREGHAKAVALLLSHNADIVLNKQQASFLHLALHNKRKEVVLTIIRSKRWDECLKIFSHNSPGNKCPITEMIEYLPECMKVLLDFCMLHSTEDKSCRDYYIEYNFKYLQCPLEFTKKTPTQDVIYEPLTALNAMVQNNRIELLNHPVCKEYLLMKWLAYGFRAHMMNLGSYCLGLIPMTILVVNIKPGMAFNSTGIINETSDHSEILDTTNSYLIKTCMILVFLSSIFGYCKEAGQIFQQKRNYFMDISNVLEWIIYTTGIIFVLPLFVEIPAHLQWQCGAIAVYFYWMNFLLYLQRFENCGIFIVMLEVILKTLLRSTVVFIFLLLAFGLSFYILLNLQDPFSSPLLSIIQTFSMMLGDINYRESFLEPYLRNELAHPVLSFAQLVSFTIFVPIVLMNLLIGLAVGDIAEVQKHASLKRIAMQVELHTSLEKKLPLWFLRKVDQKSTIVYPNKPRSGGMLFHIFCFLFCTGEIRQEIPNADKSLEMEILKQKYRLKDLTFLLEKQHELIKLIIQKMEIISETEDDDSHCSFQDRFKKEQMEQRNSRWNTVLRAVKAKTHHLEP
Chain of human TRPV4 (Q9HBA0 whole entry): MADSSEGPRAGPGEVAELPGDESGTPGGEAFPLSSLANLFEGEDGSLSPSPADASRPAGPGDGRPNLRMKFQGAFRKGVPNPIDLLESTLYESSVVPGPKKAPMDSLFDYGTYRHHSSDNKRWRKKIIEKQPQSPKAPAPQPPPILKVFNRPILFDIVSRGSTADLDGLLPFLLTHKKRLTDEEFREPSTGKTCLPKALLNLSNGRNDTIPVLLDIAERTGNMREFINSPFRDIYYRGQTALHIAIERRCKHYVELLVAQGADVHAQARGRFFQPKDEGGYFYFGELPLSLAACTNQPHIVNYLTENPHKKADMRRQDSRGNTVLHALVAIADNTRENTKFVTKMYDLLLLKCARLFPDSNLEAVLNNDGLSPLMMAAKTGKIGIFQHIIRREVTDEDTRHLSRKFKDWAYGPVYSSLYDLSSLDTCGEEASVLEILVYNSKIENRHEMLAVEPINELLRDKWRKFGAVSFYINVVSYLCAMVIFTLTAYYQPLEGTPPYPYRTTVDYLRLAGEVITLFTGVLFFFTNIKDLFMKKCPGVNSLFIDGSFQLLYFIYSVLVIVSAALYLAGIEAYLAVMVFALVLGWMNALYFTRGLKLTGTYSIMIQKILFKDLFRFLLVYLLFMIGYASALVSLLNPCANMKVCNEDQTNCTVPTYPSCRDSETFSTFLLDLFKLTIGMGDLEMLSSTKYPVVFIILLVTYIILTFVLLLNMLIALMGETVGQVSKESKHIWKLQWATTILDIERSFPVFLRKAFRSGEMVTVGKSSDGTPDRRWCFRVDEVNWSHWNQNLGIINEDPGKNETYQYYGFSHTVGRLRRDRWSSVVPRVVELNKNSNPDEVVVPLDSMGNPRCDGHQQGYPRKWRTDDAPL
Chain of human TRPV1 (Q8NER1 whole entry): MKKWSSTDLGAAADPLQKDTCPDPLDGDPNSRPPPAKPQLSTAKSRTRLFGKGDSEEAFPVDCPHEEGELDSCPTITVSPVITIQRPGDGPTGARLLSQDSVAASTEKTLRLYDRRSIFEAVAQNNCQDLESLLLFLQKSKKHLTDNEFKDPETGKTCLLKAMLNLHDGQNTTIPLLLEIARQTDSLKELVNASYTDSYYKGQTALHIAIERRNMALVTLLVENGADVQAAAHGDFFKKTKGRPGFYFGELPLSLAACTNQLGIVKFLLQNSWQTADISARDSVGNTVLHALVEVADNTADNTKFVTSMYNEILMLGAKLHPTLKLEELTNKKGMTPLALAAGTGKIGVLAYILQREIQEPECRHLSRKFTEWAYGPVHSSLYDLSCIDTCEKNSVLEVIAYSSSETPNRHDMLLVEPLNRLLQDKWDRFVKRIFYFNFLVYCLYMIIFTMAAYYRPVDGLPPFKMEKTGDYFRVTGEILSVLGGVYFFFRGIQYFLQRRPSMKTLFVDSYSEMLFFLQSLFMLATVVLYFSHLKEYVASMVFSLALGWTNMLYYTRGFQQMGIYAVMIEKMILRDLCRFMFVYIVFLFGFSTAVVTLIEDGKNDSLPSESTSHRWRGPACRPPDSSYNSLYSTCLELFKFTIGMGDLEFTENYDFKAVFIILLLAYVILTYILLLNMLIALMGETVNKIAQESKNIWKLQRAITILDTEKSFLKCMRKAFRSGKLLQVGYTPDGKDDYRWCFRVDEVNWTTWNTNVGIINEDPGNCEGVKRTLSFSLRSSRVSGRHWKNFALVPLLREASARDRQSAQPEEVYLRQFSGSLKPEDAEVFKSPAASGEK
Chain of human TRPV3 (Q8NET8 whole entry): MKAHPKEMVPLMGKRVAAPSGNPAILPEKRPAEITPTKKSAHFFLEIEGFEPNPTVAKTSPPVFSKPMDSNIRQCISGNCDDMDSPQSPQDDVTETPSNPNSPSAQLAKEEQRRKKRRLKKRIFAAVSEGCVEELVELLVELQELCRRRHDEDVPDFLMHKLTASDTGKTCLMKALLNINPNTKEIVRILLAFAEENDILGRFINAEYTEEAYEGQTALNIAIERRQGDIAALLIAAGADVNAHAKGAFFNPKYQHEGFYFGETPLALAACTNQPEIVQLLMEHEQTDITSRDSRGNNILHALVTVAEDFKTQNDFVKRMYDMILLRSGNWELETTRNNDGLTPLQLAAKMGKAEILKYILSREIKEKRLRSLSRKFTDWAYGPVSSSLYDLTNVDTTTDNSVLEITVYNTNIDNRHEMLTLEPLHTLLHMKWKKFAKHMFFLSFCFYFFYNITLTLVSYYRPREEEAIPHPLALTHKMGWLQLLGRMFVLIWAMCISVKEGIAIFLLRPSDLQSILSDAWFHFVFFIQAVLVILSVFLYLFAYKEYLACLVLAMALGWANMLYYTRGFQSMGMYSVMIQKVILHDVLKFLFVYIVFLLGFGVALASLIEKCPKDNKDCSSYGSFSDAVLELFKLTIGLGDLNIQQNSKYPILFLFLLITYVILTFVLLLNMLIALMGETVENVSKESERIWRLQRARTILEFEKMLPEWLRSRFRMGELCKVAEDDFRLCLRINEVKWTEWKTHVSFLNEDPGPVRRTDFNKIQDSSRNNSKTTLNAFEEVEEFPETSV

Regarding `Cc1sc2c(c1CC(=O)Nc1nc(-c3ccc(Cl)c(Cl)c3)cs1)c(=O)n(C)c(=O)n2C` [Compound 47], the IC50 was greater than 10 µM on human TRPV1; greater than 1000 nM on human TRPV4; greater than 10000 nM at human TRPV3; greater than 10 µM on human TRPM8; 33.6 nM on human TRPA1.

Consider `CCc1sc2c(c1CC(=O)Nc1nc(-c3cc(F)c(OC(F)F)c(F)c3)cs1)c(=O)n(C)c(=O)n2C` [Compound 48], for which the IC50 was greater than 10 µM at human TRPV1; greater than 10000 nM on human TRPV4; greater than 10000 nM at human TRPV3; greater than 10 µM on human TRPM8; 18.1 nM at human TRPA1.

Turning to `CCc1sc2c(c1CC(=O)Nc1nc(-c3cc(F)c(OCC(F)(F)F)c(F)c3)cs1)c(=O)n(C)c(=O)n2C` [Compound 49], the IC50 was greater than 10 µM on human TRPV1; greater than 10000 nM at human TRPV4; greater than 10000 nM at human TRPV3; greater than 10 µM at human TRPM8; 3.98 nM at human TRPA1.

Regarding `CCc1sc2c(c1CC(=O)Nc1nc(-c3ccc(C(F)(F)F)c(F)c3)cs1)c(=O)n(C)c(=O)n2C` [Compound 50], the IC50 was greater than 10 µM on human TRPV1; 8890 nM on human TRPV4; greater than 1000 nM at human TRPV3; greater than 10 µM on human TRPM8; 16.7 nM at human TRPA1.

As for `CC(C)COc1c(F)cc(-c2csc(NC(=O)Cc3coc4c3c(=O)n(C)c(=O)n4C)n2)cc1F` [Compound 53], the IC50 at human TRPV1 is greater than 10 µM; on human TRPV4 it was greater than 1000 nM; at human TRPV3 it was greater than 10000 nM; on human TRPM8, greater than 10 µM; on human TRPA1 it was 18.2 nM.

In the case of `Cn1c(=O)c2c(CC(=O)Nc3nc(-c4ccc(C(F)(F)F)c(F)c4)cs3)coc2n(C)c1=O` [Compound 54], the IC50 was greater than 10 µM at human TRPV1; greater than 1000 nM on human TRPV4; greater than 1000 nM at human TRPV3; greater than 10 µM at human TRPM8; 17.7 nM on human TRPA1.

For the compound `Cn1c(=O)c2c(CC(=O)Nc3nc(-c4cc(F)cc(C(F)(F)F)c4)cs3)coc2n(C)c1=O` [Compound 55], the IC50 was greater than 10 µM at human TRPV1; greater than 1000 nM at human TRPV4; greater than 1000 nM on human TRPV3; greater than 10 µM at human TRPM8; 2.15 nM at human TRPA1.

Consider `Cn1c(=O)c2c(CC(=O)Nc3nc(-c4cc(F)c(CCC(F)(F)F)c(F)c4)cs3)coc2n(C)c1=O` [Compound 56], for which the IC50 at human TRPV1 was greater than 10 µM; on human TRPV4, greater than 1000 nM; at human TRPV3, greater than 10000 nM; at human TRPM8, greater than 10 µM; on human TRPA1, 3.38 nM.

Turning to `Cn1c(=O)c2c(CC(=O)Nc3nc(-c4cc(Cl)c(OCC(F)(F)F)c(Cl)c4)cs3)coc2n(C)c1=O` [Compound 57], the IC50 on human TRPV1 was greater than 10 µM; at human TRPV4 it was greater than 1000 nM; at human TRPV3, greater than 10000 nM; at human TRPM8, greater than 10 µM; on human TRPA1, 1.45 nM.

Turning to `Cn1c(=O)c2c(CC(=O)Nc3nc(-c4ccc(F)c(C(F)(F)F)c4)cs3)coc2n(C)c1=O` [Compound 58], the IC50 was greater than 10 µM at human TRPV1; greater than 1000 nM at human TRPV4; greater than 1000 nM at human TRPV3; greater than 10 µM on human TRPM8; 11.9 nM on human TRPA1.

As for `Cn1c(=O)c2c(CC(=O)Nc3nc(-c4cccc(C(F)(F)F)c4F)cs3)coc2n(C)c1=O` [Compound 59], the IC50 on human TRPV1 is greater than 10 µM; on human TRPV4 it was 2830 nM; on human TRPV3, greater than 1000 nM; on human TRPM8 it was greater than 10 µM; on human TRPA1, 2.21 nM.

`Cn1c(=O)c2c(CC(=O)Nc3nc(-c4cc(F)c(OCC(F)(F)F)c(Cl)c4)cs3)coc2n(C)c1=O` [Compound 60]: the IC50 on human TRPV1 is greater than 10 µM; on human TRPV4, greater than 1000 nM; at human TRPV3, greater than 10000 nM; at human TRPM8, greater than 10 µM; on human TRPA1, 3.54 nM.

`Cc1oc2c(c1CC(=O)Nc1nc(-c3cc(F)cc(C(F)(F)F)c3)cs1)c(=O)n(C)c(=O)n2C` [Compound 61]: the half-maximal inhibitory concentration (IC50) was greater than 10 µM at human TRPV1; greater than 10000 nM on human TRPV4; greater than 10000 nM at human TRPV3; greater than 10 µM on human TRPM8; 2.93 nM at human TRPA1.

As for `Cc1oc2c(c1CC(=O)Nc1nc(-c3ccc(Cl)c(OC(F)(F)F)c3)cs1)c(=O)n(C)c(=O)n2C` [Compound 63], the IC50 at human TRPV1 was greater than 10 µM; on human TRPV4, greater than 10000 nM; on human TRPV3, greater than 1000 nM; at human TRPM8, greater than 10 µM; at human TRPA1 it was 9.04 nM.

Regarding `Cc1oc2c(c1CC(=O)Nc1nc(-c3ccc(F)c(C(F)(F)F)c3F)cs1)c(=O)n(C)c(=O)n2C` [Compound 64], the IC50 on human TRPV1 was greater than 10 µM; on human TRPV4, greater than 10000 nM; at human TRPV3, greater than 1000 nM; on human TRPM8, greater than 10 µM; at human TRPA1, 4.52 nM.

Consider `Cc1oc2c(c1CC(=O)Nc1nc(-c3ccc(C(F)(F)F)cc3F)cs1)c(=O)n(C)c(=O)n2C` [Compound 65], for which the IC50 at human TRPV1 is greater than 10 µM; at human TRPV4, greater than 1000 nM; at human TRPV3, greater than 1000 nM; at human TRPM8 it was greater than 10 µM; at human TRPA1 it was 6.65 nM.

With `Cc1oc2c(c1CC(=O)Nc1nc(-c3cc(F)c(OCC(C)(C)C)c(F)c3)cs1)c(=O)n(C)c(=O)n2C` [Compound 66], the IC50 is greater than 10 µM on human TRPV1; greater than 10000 nM on human TRPV4; greater than 10000 nM at human TRPV3; greater than 10 µM on human TRPM8; 3.63 nM on human TRPA1.

As to `Cc1oc2c(c1CC(=O)Nc1nc(-c3cccc(C(F)(F)F)c3F)cs1)c(=O)n(C)c(=O)n2C` [Compound 67], the IC50 on human TRPV1 is greater than 10 µM; on human TRPV4 it was greater than 10000 nM; at human TRPV3, greater than 1000 nM; at human TRPM8, greater than 10 µM; on human TRPA1, 13.6 nM.

With `Cc1oc2c(c1CC(=O)Nc1nc(-c3ccc(F)c(OC(F)(F)F)c3)cs1)c(=O)n(C)c(=O)n2C` [Compound 68], the half-maximal inhibitory concentration (IC50) on human TRPV1 was greater than 10 µM; at human TRPV4, greater than 10000 nM; at human TRPV3 it was greater than 1000 nM; at human TRPM8, greater than 10 µM; on human TRPA1, 4.84 nM.

Consider `Cc1oc2c(c1CC(=O)Nc1nc(-c3ccc(F)c(C(F)(F)F)c3)cs1)c(=O)n(C)c(=O)n2C` [Compound 69], for which the half-maximal inhibitory concentration (IC50) at human TRPV1 was greater than 10 µM; on human TRPV4, greater than 1000 nM; at human TRPV3 it was greater than 1000 nM; on human TRPM8 it was greater than 10 µM; at human TRPA1, 7.1 nM.

Regarding `Cc1oc2c(c1CC(=O)Nc1nc(-c3ccc(OC(F)(F)F)c(F)c3)cs1)c(=O)n(C)c(=O)n2C` [Compound 70], the IC50 was greater than 10 µM at human TRPV1; greater than 1000 nM on human TRPV4; greater than 1000 nM on human TRPV3; greater than 10 µM at human TRPM8; 12.6 nM on human TRPA1.

In the case of `Cc1oc2c(c1CC(=O)Nc1nc(-c3ccc(Cl)c(C(F)(F)F)c3)cs1)c(=O)n(C)c(=O)n2C` [Compound 71], the IC50 is greater than 10 µM at human TRPV1; greater than 10000 nM on human TRPV4; greater than 1000 nM at human TRPV3; greater than 10 µM on human TRPM8; 3.18 nM at human TRPA1.

Turning to `Cc1oc2c(c1CC(=O)Nc1nc(-c3cc(F)c(C(F)(F)F)c(F)c3)cs1)c(=O)n(C)c(=O)n2C` [Compound 72], the IC50 at human TRPV1 was greater than 10 µM; at human TRPV4, greater than 1000 nM; on human TRPV3 it was greater than 1000 nM; on human TRPM8, greater than 10 µM; at human TRPA1, 4.16 nM.

Turning to `Cc1oc2c(c1CC(=O)Nc1nc(-c3ccc(OCC(F)(F)F)c(Cl)c3)cs1)c(=O)n(C)c(=O)n2C` [Compound 74], the IC50 on human TRPV1 is greater than 10 µM; on human TRPV4, greater than 10000 nM; at human TRPV3, greater than 10000 nM; on human TRPM8, greater than 10 µM; on human TRPA1, 5.29 nM.
